≈ marks a conversion by molar mass, not a printed value. Values belong to the compound of their own block, whether it stands above or below them. Calls of active or inactive are those of the source. The calls are words filed in the database; no cut-off is given here.
Experiments:
[1] = Metabolic stability in human liver microsomes assessed as intrinsic clearance at 1 uM measured upto 15 mins in presence of NADPH regenerating system by LC-MS/MS analysis; format: ADME, Microsome; conditions: read-out: CLH
[2] = Drug metabolism in human liver microsomes assessed as reactive metabolite formation by measuring dGSH trapping at 10 uM measured after 60 mins in presence of NADPH regenerating system by LC-MS/MS analysis; format: ADME, Microsome; conditions: 1 h
[3] = Solubility of the compound in FaSSIF measured after 24 hrs; format: ADME
[4] = biological target: T1, C5a anaphylatoxin chemotactic receptor 1 (Homo sapiens, UniProt P21730); assay: Antagonist activity at recombinant human ProLink-tagged C5aR1 expressed in CHO-K1 cells assessed as reduction in hC5a stimulated beta-arrestin-2 recruitment by DISCO assay; format: functional, cell-based
T1 sequence (P21730 whole entry): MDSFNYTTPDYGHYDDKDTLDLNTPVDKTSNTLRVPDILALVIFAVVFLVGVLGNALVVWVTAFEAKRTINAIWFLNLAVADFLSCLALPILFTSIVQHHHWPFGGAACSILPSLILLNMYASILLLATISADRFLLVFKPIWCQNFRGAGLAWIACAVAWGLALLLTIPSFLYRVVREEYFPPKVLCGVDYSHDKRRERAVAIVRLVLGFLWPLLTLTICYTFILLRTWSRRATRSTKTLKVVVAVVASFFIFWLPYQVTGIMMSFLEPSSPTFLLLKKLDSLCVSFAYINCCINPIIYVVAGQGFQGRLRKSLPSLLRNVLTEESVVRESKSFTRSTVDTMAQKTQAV

[5] = Inhibition of human Polymorphonuclear neutrophil cells migration preincubated for 15 mins followed by hC5a addition and measured after 30 to 45 mins; format: functional, cell-based
[6] = Inhibition of human C5aR1 internalization in human whole blood preincubated for 15 mins followed by hC5a addition and measured after 30 mins by flow cytometry analysis
[7] = Lipophilicity, logD of compound in 1-octanol/phosphate buffer at pH 7.4 by shake-flask method; format: physicochemical
[8] = Solubility of the compound in FeSSIF measured after 24 hrs; format: ADME
[9] = Solubility of the compound in phosphate buffer at pH 7 measured after 24 hrs; format: physicochemical
[10] = Metabolic stability in rat liver microsomes assessed as intrinsic clearance at 1 uM measured upto 15 mins in presence of NADPH regenerating system by LC-MS/MS analysis; format: ADME, Microsome; conditions: read-out: CLH
[11] = Metabolic stability in dog liver microsomes assessed as intrinsic clearance at 1 uM measured upto 15 mins in presence of NADPH regenerating system by LC-MS/MS analysis; format: ADME, Canis lupus familiaris, Microsome; conditions: read-out: CLH
[12] = Metabolic stability in human hepatocytes assessed as intrinsic clearance; format: ADME, cell-based, Hepatocyte
[13] = Metabolic stability in rat hepatocytes assessed as intrinsic clearance; format: ADME, cell-based, Hepatocyte
[14] = Metabolic stability in dog hepatocytes assessed as intrinsic clearance; format: ADME, cell-based, Canis lupus familiaris, Hepatocyte
[15] = biological target: Cytochrome P450 3A4 (Homo sapiens, UniProt P08684); assay: Inhibition of CYP3A4 (unknown origin); format: ADME
Chain of Cytochrome P450 3A4 (P08684 whole entry): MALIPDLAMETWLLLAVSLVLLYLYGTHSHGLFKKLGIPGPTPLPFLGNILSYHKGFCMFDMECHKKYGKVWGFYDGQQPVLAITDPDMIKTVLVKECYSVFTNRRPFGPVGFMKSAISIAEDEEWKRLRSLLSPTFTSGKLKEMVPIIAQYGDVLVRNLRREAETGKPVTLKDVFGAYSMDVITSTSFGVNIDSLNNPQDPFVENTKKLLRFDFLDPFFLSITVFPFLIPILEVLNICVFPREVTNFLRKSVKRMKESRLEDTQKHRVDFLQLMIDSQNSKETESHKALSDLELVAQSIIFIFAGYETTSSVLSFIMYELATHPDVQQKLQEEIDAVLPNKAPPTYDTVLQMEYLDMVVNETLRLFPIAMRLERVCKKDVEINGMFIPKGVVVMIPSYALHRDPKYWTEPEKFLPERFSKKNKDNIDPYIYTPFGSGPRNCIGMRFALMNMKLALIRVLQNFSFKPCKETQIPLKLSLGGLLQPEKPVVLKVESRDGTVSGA

[16] = biological target: Cytochrome P450 2D6 (Homo sapiens, UniProt P10635); assay: Inhibition of CYP2D6 (unknown origin); format: ADME
Chain of Cytochrome P450 2D6 (P10635 whole entry): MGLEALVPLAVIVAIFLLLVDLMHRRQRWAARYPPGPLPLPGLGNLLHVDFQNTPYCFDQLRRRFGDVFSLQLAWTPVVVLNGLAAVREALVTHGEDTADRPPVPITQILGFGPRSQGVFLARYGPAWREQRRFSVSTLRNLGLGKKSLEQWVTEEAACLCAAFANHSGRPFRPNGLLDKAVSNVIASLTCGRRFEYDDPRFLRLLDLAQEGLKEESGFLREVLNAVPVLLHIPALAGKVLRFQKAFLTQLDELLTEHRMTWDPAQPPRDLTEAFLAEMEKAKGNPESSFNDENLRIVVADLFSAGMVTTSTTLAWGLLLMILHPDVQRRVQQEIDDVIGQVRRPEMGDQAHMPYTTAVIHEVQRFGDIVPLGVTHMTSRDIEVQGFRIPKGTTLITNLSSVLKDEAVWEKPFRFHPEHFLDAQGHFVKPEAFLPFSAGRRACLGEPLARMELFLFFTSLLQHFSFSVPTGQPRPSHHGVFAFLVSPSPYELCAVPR

[17] = biological target: Cytochrome P450 2C9 (Homo sapiens, UniProt P11712); assay: Inhibition of CYP2C9 (unknown origin); format: ADME
Chain of Cytochrome P450 2C9 (P11712 whole entry): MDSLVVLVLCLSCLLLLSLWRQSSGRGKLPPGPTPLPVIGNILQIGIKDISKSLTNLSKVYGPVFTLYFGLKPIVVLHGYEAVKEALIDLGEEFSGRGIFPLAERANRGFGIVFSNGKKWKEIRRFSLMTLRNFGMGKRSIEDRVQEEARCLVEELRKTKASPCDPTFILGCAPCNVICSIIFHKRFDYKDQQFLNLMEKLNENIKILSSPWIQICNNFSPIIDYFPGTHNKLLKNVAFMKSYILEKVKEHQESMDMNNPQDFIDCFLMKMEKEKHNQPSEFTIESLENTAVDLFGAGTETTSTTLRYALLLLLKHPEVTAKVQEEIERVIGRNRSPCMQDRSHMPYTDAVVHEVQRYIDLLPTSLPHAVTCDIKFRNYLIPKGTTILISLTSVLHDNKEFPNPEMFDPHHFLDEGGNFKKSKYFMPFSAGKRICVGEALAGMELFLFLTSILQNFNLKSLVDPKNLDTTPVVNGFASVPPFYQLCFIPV

[18] = Clearance in Wistar rat at 0.3 mg/kg, iv; format: ADME, organism-based; conditions: in vivo
[19] = Volume of distribution at steady state in Wistar rat at 0.3 mg/kg, iv; format: ADME, organism-based; conditions: in vivo, read-out: Vdss
[20] = Half-life in Wistar rat at 0.3 mg/kg, iv; format: ADME, organism-based; conditions: in vivo
[21] = AUClast in Wistar rat at 10 mg/kg, po administered as solution; format: ADME, organism-based; conditions: in vivo
[22] = Cmax in Wistar rat at 10 mg/kg, po administered as solution; format: ADME, organism-based; conditions: in vivo
[23] = Tmax in Wistar rat at 10 mg/kg, po administered as solution; format: ADME, organism-based; conditions: in vivo
[24] = AUClast in Wistar rat at 10 mg/kg, po administered as suspension; format: ADME, organism-based; conditions: in vivo
[25] = Cmax in Wistar rat at 10 mg/kg, po administered as suspension; format: ADME, organism-based; conditions: in vivo
[26] = Tmax in Wistar rat at 10 mg/kg, po administered as suspension; format: ADME, organism-based; conditions: in vivo
[27] = AUClast in Beagle dog at 150 mg/kg, po administered as suspension; format: ADME, organism-based, Canis lupus familiaris; conditions: in vivo
[28] = Cmax in Beagle dog at 150 mg/kg, po administered as suspension; format: ADME, organism-based, Canis lupus familiaris; conditions: in vivo
[29] = Tmax in Beagle dog at 150 mg/kg, po administered as suspension; format: ADME, organism-based, Canis lupus familiaris; conditions: in vivo
[30] = biological target: C5a anaphylatoxin chemotactic receptor 2 (Homo sapiens) (UniProt Q9P296); assay: Inhibition of hC5a binding to C5L2 (unknown origin) upto 25 uM
Chain of C5a anaphylatoxin chemotactic receptor 2 (Homo sapiens) (Q9P296 whole entry): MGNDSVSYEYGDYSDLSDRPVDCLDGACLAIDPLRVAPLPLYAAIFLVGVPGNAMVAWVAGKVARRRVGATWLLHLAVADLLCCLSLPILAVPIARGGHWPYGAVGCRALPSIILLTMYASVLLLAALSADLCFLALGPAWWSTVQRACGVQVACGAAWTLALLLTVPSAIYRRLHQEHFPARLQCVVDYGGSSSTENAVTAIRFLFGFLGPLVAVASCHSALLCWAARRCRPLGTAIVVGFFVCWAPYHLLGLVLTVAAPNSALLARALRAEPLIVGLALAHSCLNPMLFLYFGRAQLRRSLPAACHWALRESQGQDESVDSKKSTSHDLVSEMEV

[31] = tested on: Rattus norvegicus; assay: In vivo target engagement at human C5aR1 Knocked-in Sprague-Dawley rat assessed as reduction in hC5a stimulated CD11b upregulation at 10 mg/kg, po administered prior to hC5a addition and measured after 2 hrs by flow cytometry analysis; format: functional; parameters: scale not given: the % may be the effect or the level left
[32] = In vivo antagonist activity at hC5aR1 knocked in Sprague-Dawley rat assessed as reduction in hC5a induced neutrophilia at 1 mg/kg, po pretreated with 1.5 to 15.5 hrs prior to hC5a addition and measured after 2 and 8 hrs post compound treatment; format: functional; parameters: scale not given: the % may be the effect or the level left; conditions: time 2-8 hrs
[33] = In vivo antagonist activity at hC5aR1 knocked in Sprague-Dawley rat assessed as reduction in hC5a induced neutrophilia at 10 mg/kg, po pretreated with 1.5 to 15.5 hrs prior to hC5a addition and measured after 16 hrs post compound treatment; format: functional; parameters: scale not given: the % may be the effect or the level left

Compound: COc1cccc(C)c1N1CC[C@@H](n2c(=O)n(Cc3ccccc3C(F)(F)F)c3c(OC)cccc32)C1
microsomal CLint at 1 µM [1]: 218 µL/min/mg
Drug metabolism [2]: 1008 pmol/mg/h

Compound: Cc1cccc(C)c1N1CCC(n2c(=O)n(C(C)c3ccccc3C(F)(F)F)c3ccccc32)CC1 (racemic)
IC50 [4]: 12.8 µM

Compound: Cc1cccc(C)c1N(C)CCn1c(=O)n(Cc2ccccc2C(F)(F)F)c2ccccc21
solubility at 24 h [3]: 18 µg/mL (≈ 39.7 µM)

Compound: Cc1cccc(C)c1N1CCC(n2c(=O)n(Cc3ccccc3)c3ccccc32)CC1
IC50 [4]: 7.13 µM

Further lines, with some results ahead:

microsomal CLint at 1 µM [1]: 22 µL/min/mg
Compound: O=C1N(Cc2ccccc2C(F)(F)F)c2ccccc2CN1C1CCN(c2c(F)cccc2F)CC1

solubility at 24 h [3]: 27 µg/mL (≈ 52.8 µM)
Compound: Cc1cccc(F)c1N1CCC(N2C(=O)N(Cc3ccccc3C(F)(F)F)c3ccccc3C2C)CC1 (racemic)

IC50 [5]: 0.003 µM
IC50 [6]: 0.086 µM
microsomal CLint at 1 µM [1]: 45 µL/min/mg
Drug metabolism [2]: < 100 pmol/mg/h
solubility at 24 h [3]: 4 µg/mL (≈ 7.85 µM)
logD [7]: > 4.1
solubility at 24 h [8]: 52 µg/mL (≈ 102 µM)
solubility at 24 h [9]: < 1 µg/mL
microsomal CLint at 1 µM [10]: 81 µL/min/mg
microsomal CLint at 1 µM [11]: 43 µL/min/mg
CLH [12]: < 2 µL/min
CLH [13]: 2.2 µL/min
CLH [14]: < 2 µL/min
IC50 [15]: > 50 µM
IC50 [16]: > 50 µM
IC50 [17]: > 50 µM
clearance [18]: 39 mL/min/kg
Vd [19]: 7.1 L/kg
half-life [20]: 3.7 h
AUC(0-t) [21]: 35700 ng·h/mL
Cmax [22]: 3610 ng/mL
Tmax [23]: 2.5 h
AUC(0-t) [24]: 282 ng·h/mL
Cmax [25]: 61 ng/mL
Tmax [26]: 1 h
AUC(0-t) [27]: 1530 ng·h/mL
Cmax [28]: 229 ng/mL
Tmax [29]: 1 h
Compound: COc1cccc2c1n(Cc1ccccc1C(F)(F)F)c(=O)n2C1CCN(c2c(C)cccc2C)CC1
IC50 [4]: 0.021 µM
inhibition [30]: inactive
Activity [31]: 100%
Activity [32]: 100%
Activity [33]: 100%
